Laboratory results from the NIST ThermoML archive (doi:10.1021/je900212d).

Assays:
[1] = 101.33 kPa, Liquid
[2] = xn = mol fraction of the nth substance listed; settings: 101 kPa, Liquid

CCCO [propan-1-ol]
[1]
Settings	mass density [kg/m3]	viscosity [mPa·s]
288.15 K	810.5	2.42
293.15 K	806.5	2.137
298.15 K	803.2	1.894
303.15 K	799.3	1.684
308.15 K	795.2	1.504
313.15 K	790.4	1.352

O=Cc1ccccc1 [benzaldehyde] + ClCCCl
[2]
Settings	mass density [kg/m3]	viscosity [mPa·s]
288.15 K, x1 = 0.1005	1233	0.9491
288.15 K, x1 = 0.2068	1207.2	1.034
288.15 K, x1 = 0.2964	1186.5	1.097
288.15 K, x1 = 0.3902	1166	1.171
288.15 K, x1 = 0.4888	1146.4	1.27
288.15 K, x1 = 0.5923	1125.5	1.348
288.15 K, x1 = 0.7012	1107.6	1.454
288.15 K, x1 = 0.8159	1086.7	1.58
288.15 K, x1 = 0.9061	1070.6	1.66
293.15 K, x1 = 0.1007	1227.6	0.8854
293.15 K, x1 = 0.2072	1200	0.9592
293.15 K, x1 = 0.2969	1180.5	1.017
293.15 K, x1 = 0.3909	1161.8	1.085
293.15 K, x1 = 0.4894	1139.5	1.168
293.15 K, x1 = 0.5929	1119.9	1.242
293.15 K, x1 = 0.7017	1102.2	1.335
293.15 K, x1 = 0.8163	1082	1.445
293.15 K, x1 = 0.9063	1066.4	1.517
298.15 K, x1 = 0.1006	1220.5	0.8213
298.15 K, x1 = 0.2069	1196.1	0.8951
298.15 K, x1 = 0.2965	1174.6	0.9471
298.15 K, x1 = 0.3904	1155.5	1.008
298.15 K, x1 = 0.4889	1133.4	1.08
298.15 K, x1 = 0.5924	1117.3	1.151
298.15 K, x1 = 0.7013	1098.6	1.233
298.15 K, x1 = 0.816	1077.9	1.328
298.15 K, x1 = 0.9061	1063.1	1.394
303.15 K, x1 = 0.1009	1214.3	0.7706
303.15 K, x1 = 0.2074	1190	0.8362
303.15 K, x1 = 0.2972	1169.8	0.8848
303.15 K, x1 = 0.3911	1150.1	0.9515
303.15 K, x1 = 0.4897	1126.5	1.003
303.15 K, x1 = 0.5932	1112.7	1.07
303.15 K, x1 = 0.702	1094.4	1.143
303.15 K, x1 = 0.8165	1073.2	1.225
303.15 K, x1 = 0.9064	1058.5	1.285
308.15 K, x1 = 0.1011	1206.5	0.726
308.15 K, x1 = 0.2078	1182.6	0.7824
308.15 K, x1 = 0.2976	1162.9	0.828
308.15 K, x1 = 0.3917	1144.1	0.8897
308.15 K, x1 = 0.4903	1121	0.9346
308.15 K, x1 = 0.5937	1107.8	0.998
308.15 K, x1 = 0.7025	1091	1.067
308.15 K, x1 = 0.8168	1068.5	1.135
308.15 K, x1 = 0.9066	1053	1.189
313.15 K, x1 = 0.1013	1198	0.6795
313.15 K, x1 = 0.2083	1173.6	0.7327
313.15 K, x1 = 0.2983	1153.9	0.777
313.15 K, x1 = 0.3924	1136.7	0.8272
313.15 K, x1 = 0.491	1115.5	0.8725
313.15 K, x1 = 0.5945	1102.2	0.9318
313.15 K, x1 = 0.7031	1085.5	0.9944
313.15 K, x1 = 0.8173	1063.1	1.054
313.15 K, x1 = 0.9069	1049.7	1.107

O=Cc1ccccc1 [benzaldehyde]
[1]
Settings	mass density [kg/m3]	viscosity [mPa·s]
288.15 K	1056	1.704
293.15 K	1052.8	1.558
298.15 K	1047	1.427
303.15 K	1043.2	1.316
308.15 K	1039	1.223
313.15 K	1034.4	1.131
